Data reported in US20150297761A1, “PEPTIDIC STRUCTURES INCORPORATING AN AMINO ACID METAL COMPLEX AND APPLICATIONS IN MAGNETIC RESONANCE IMAGING” (THE GENERAL HOSPITAL CORPORATION, priority 2012, published 2015).

Key:
[1] = Relaxivity of Gd(DOTAla) metallopeptides and reference agents (T1 inversion recovery, 37° C.); assay type: physicochemical; details: for Relaxivity per Gd, 400 MHz: 400 MHz (9.4 T); for r1 [0.47 T], per molecule / r1 [1.4 T], per molecule: per molecule (in parentheses)
Description: Main numbers are given per Gd, numbers in parentheses are per molecule values. All numbers were determined at 37° C. using an inversion recovery sequence at concentrations ranging from 0.05 to 0.6 mM/Gd. Table 4 in Example 2 further expands the data of Table 1.
Per Gd relaxivities were determined by measuring T1 at 37° C. using 20, 60, 200, 400 and 500 MHz spectrometers. Relaxivities for MS-325 (with and without the presence of HSA) as a reference compound with a long τR and [Gd(HP-DO3A)(H2O)] as a reference for very short τR were also measured, and all the relaxivity data is tabulated in Table 4, together with results obtained from literature for the compounds with similar estimated τR. […] Additional rigidity through cyclization seems to provide only minor relaxivity increase for the dimeric and trimeric systems (Gd2C2 and Gd3C3).
(§1) Measurement of relaxivity. Longitudinal relaxation times T1, were measured on Bruker Minispecs mq20 (0.47 T) and mq60 (1.41 T), a Bruker Bioscan horizontal bore 4.7 T, 9.4 T and 11.7 T Varian NMR spectrometers. T1 was measured by using an inversion recovery method with 10 inversion time values ranging from 0.05×T1 to 5×T1. Relaxivity was calculated from a linear plot of 3 or 4 different concentrations (ranging from 0.01 to 0.5 mM, depending on amount of compound isolated) versus the corresponding inverse relaxation times. All samples were measured at 37° C. using either the internal temperature control of the instrument (0.47, 1.41, 9.4 and 11.7 T) or a warm air blower (4.7 T). MS-325/HSA was prepared in a 4.5% w/v solution of HSA (0.66 mM) in PBS. The MS-325 concentration (in presence of HSA) ranged from 0.05 to 0.15 mM.

[2] = Relaxivity before and after disulfide bond reduction with TCEP; assay type: physicochemical; details: for Relaxivity per Gd, TCEP reduced: after TCEP reduction of the disulfide bond; for Relaxivity per Gd, TCEP reduced / Relaxivity per Gd, cyclic / relaxivity r1, cyclic versus linearized (reduced) multimer: 37° C.; for Relaxivity per Gd, cyclic: first value column, before reduction; for relaxivity r1, cyclic versus linearized (reduced) multimer: 1.4 T; for relaxivity after disulfide bond reduction: 20 eq. TCEP 30 minutes, T1 at 37° C., field not stated in the sentence (0.47 and 1.41 T examined)
Description: Investigation of the effect of tertiary structure on relaxivity, was done by examination of the effect of disulfide bond reduction on T1 at 0.47 and 1.41 T. T1 was measured for each sample at 37° C. and then the samples were incubated with 20 eq. TCEP for 30 minutes at room temperature to reduce the intramolecular disulfide bond and give the linear peptide. Subsequently, the T1 values were remeasured and concentrations re-determined in order to calculate relaxivities. […] Over all, reduction of the disulfide bond has only a slight effect on relaxivity (FIGS. 16-18 and Table 5).
Reduction of disulfide bond for relaxivity measurements. Complex solutions of purified, cyclic Gd complexes (concentrations of 0.1-0.025 mM, 110 μL) in HEPES buffer (50 mM, pH 7.4) were mixed with TCEP solution (20 mM in HEPES, 10 μL) and incubated room temperature. Reduction was checked by LCMS analysis and found to be complete after 30 minutes.
as §1

[3] = Relaxivity of DOTAlaP derivatives (Example 6); assay type: physicochemical
Description: Relaxivity. Longitudinal relaxation times T1, were measured on Bruker Minispecs mq20 (20 MHz) and mq60 (60 MHz) using an inversion recovery method with 10 inversion time values ranging from 0.05×T1 to 5×Ti. Relaxivity was calculated from a linear plot of 3 different concentrations ranging from 0.25 to 1.0 mM versus the corresponding inverse relaxation times. The temperature was adjusted to 37° C.

[4] = Relaxivity in the absence and presence of HSA (Example 3); assay type: physicochemical
Description: ^1H and ^13C NMR spectra were recorded on a Varian 500 NMR system equipped with a 5 mm broadband probe. Longitudinal relaxation times, T1, were measured by using the inversion recovery method on Bruker Minispecs. mq20 (20 MHz) and mq60 (60 MHz). Purification via HPLC of intermediates toward Fmoc-DOTAla was performed using method A: Injection of crude mixture onto preparative HPLC on a Rainin, Dynamax (column: 250 mm Kromasil C18) by using A: 0.1% TFA in water, B: 0.1% TFA in MeCN, flow-rate 15 mL/min, 1 over 23 minutes. HPLC purity analysis (both UV and MS detection) was carried out on an Agilent 1100 system (column: Phenomenex Luna, C18(2) 100/2 mm) with UV detection at 220, 254 and 280 nm by using a method B: A gradient of A(0.1% formic acid in water) to 95% B(0.1% formic acid in MeCN), flow-rate 0.8 mL/min, 1 over 15 minutes.

HSA = HSA (Homo sapiens, UniProt P02768); test: HSA binding by ultrafiltration and ICP-MS (Example 3); assay type: in vitro ADME; details: 0.1 mM compound, 4.5% (w/v) HSA, 37° C.
Description: In order to measure HSA binding of the complexes, a 0.1 mM solution (determined by ICP-MS) of the corresponding Gd complex in 4.5% w/v HSA was prepared and pipetted into a Ultrafree-MC Microcentrifuge Filter (NMWL 5,000 Da, PLCC, Millipore). The mixture is incubated at 37° C. for 10 minutes and subsequently centrifuged at 12,000 rpm for 15 minutes. Binding is determined by measurement of Gd content in the filtrate by ICP-MS.

[5] = Ligand challenge, equilibrium constant Kcomp of [Gd(DTPA)(H2O)]2− vs. L; assay type: physicochemical; details: calculated from literature thermodynamic data
Description: As a means of assessing thermodynamic stability relative to other Gd(III)-complexes, [Gd(CyPic3A)(H2O)2]^− was challenged with DTPA in pH 7.4 25 mM Tris buffer. […] From this information it was possible to deduce equilibrium constants (Kcomp) for the competition reaction described in Equation 5,^31 where L=DTPA and L′=challenging chelator.
Equilibration of each solution was monitored by LC-MS. Relative distributions of [Gd(CyPic3A)(H2O)2]^− and CyPic3A were determined by integrating the corresponding absorbance traces at 280 nm. […] Kcomp values determined between [Gd(DTPA)(H2O)]^2− and various ligands were determined from conditional formation constants (Kcond)^4 values taken from the literature.^6-16 Direct comparisons were only made between Kcond values determined under identical conditions.

[6] = 17O NMR of Gd complexes for determination of τM (Example 6); assay type: physicochemical; details: pH 7.4, 10 mM PBS; for ^310 TM (ns) / ^310kex × 10^6 (s^−1): 310 K
Description: ^17O NMR of Gd complexes for Determination of TM. ^17O NMR measurements of solutions were performed at 11.7 T on 350 μL samples contained in 5 mm standard NMR tubes on a Varian spectrometer. Temperature was regulated by air flow controlled by a Varian VT unit. ^17O transverse relaxation times of a >4 mM solution of Gd(3) and Gd(5a) (pH 7.4, 10 mM PBS buffer) were measured using a CPMG sequence. The concentration of the sample was determined by ICP-MS. Reduced relaxation rates, 1/T2r were calculated from the difference of 1/T2 between the sample and the water blank, and then divided by the mole fraction of coordinated water. The temperature dependence of 1/T2r was fit to a 4-parameter model as previously described. The Gd—O hyperfine-coupling constant, A/h, was assumed to be 3.8×10^6 rad/s, the Gd—O distance was assumed to be 3.1 Å.

HSA, sequence (P02768 25-609): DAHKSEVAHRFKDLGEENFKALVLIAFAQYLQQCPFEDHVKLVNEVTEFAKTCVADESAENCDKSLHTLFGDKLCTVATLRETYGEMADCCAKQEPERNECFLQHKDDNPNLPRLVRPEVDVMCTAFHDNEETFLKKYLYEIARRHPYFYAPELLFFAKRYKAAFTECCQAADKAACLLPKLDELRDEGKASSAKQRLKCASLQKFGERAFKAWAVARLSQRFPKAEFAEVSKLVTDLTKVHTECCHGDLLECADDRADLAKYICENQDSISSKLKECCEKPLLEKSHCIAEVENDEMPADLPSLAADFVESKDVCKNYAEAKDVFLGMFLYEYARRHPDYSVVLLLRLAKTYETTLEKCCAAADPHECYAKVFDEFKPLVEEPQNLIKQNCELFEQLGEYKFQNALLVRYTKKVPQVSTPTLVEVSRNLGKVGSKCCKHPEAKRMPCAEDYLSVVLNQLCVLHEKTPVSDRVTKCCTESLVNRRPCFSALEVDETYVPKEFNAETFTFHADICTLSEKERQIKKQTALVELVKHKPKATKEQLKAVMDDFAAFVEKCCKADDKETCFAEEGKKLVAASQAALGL

H2N—C(S^cycl)PG-DOTAla(Gd)-G-DOTAla(Gd)-G-DOTAla(Gd)-GC(S^cycl)CONH2 [Gd3C3]
Relaxivity per Gd, 20 MHz [1]: 12.7 mM⁻¹ s⁻¹
Relaxivity per Gd, 60 MHz [1]: 12.3 mM⁻¹ s⁻¹
Relaxivity per Gd, 200 MHz [1]: 9.2 mM⁻¹ s⁻¹
Relaxivity per Gd, 400 MHz [1]: 6.6 mM⁻¹ s⁻¹
Relaxivity per Gd, 500 MHz [1]: 5.5 mM⁻¹ s⁻¹
r1 [0.47 T], per Gd [1]: 13.38 mM⁻¹ s⁻¹
r1 [1.4 T], per Gd [1]: 12.86 mM⁻¹ s⁻¹
r1 [0.47 T], per molecule [1]: 40.14 mM⁻¹ s⁻¹
r1 [1.4 T], per molecule [1]: 38.58 mM⁻¹ s⁻¹
Relaxivity per Gd, TCEP reduced [2]: 11.5 mM⁻¹ s⁻¹
Relaxivity per Gd, cyclic [2]: 12.3 mM⁻¹ s⁻¹

H2N—C(S^cycl)PG-DOTAla(Gd)-GC(S^cycl)CONH2 [GdC1]
Relaxivity per Gd, 20 MHz [1]: 8.3 mM⁻¹ s⁻¹
Relaxivity per Gd, 60 MHz [1]: 7.1 mM⁻¹ s⁻¹
Relaxivity per Gd, 200 MHz [1]: 7.3 mM⁻¹ s⁻¹
Relaxivity per Gd, 400 MHz [1]: 5.1 mM⁻¹ s⁻¹
Relaxivity per Gd, 500 MHz [1]: 4.5 mM⁻¹ s⁻¹
r1 [0.47 T], per Gd [1]: 8.3 mM⁻¹ s⁻¹
r1 [1.4 T], per Gd [1]: 6.7 mM⁻¹ s⁻¹
Relaxivity per Gd, TCEP reduced [2]: 6.4 mM⁻¹ s⁻¹
Relaxivity per Gd, cyclic [2]: 7.1 mM⁻¹ s⁻¹

2,2′-(4-(2-carboxy-2-((1-(4-isobutylphenyl)ethyl)amino)ethyl)-10-(phosphonomethyl)-1,4,7,10-tetraazacyclododecane-1,7-diyl)diacetic acid [Gd(4b)]
r1 (20 MHz, 37° C., mM^−1s^−1) [3]: 4 mM⁻¹ s⁻¹
r1 (60 MHz, 37° C., mM^−1s^−1) [3]: 3.8 mM⁻¹ s⁻¹

H2N—C(S^cycl)PG-DOTAla(Gd)-G-DOTAla(Gd)-GC(S^cycl)CON H2 [Gd2C2]
Relaxivity per Gd, 20 MHz [1]: 11.4 mM⁻¹ s⁻¹
Relaxivity per Gd, 60 MHz [1]: 10.6 mM⁻¹ s⁻¹
Relaxivity per Gd, 200 MHz [1]: 7.5 mM⁻¹ s⁻¹
Relaxivity per Gd, 400 MHz [1]: 5.7 mM⁻¹ s⁻¹
Relaxivity per Gd, 500 MHz [1]: 4.5 mM⁻¹ s⁻¹
r1 [0.47 T], per Gd [1]: 13.1 mM⁻¹ s⁻¹
r1 [1.4 T], per Gd [1]: 12.2 mM⁻¹ s⁻¹
r1 [0.47 T], per molecule [1]: 26.2 mM⁻¹ s⁻¹
r1 [1.4 T], per molecule [1]: 24.4 mM⁻¹ s⁻¹
relaxivity r1, cyclic versus linearized (reduced) multimer [2]: 10.5 mM⁻¹ s⁻¹
Relaxivity per Gd, TCEP reduced [2]: 9 mM⁻¹ s⁻¹
Relaxivity per Gd, cyclic [2]: 10.5 mM⁻¹ s⁻¹

C[C@@H](C(=O)NC(CN1CCN(CC(=O)O)CCN(CC(=O)O)CCN(CC(=O)O)CC1)C(=O)N[C@@H](Cc1cc(I)c(O)c(I)c1)C(=O)O)c1ccccc1 (stereo partly drawn) [Gd (19), 2,2′,2″-(10-(3-(((S)-1-carboxy-2-(4-hydroxy-3,5-diiodophenyl)ethyl)amino)-3-oxo-2-((R)-2-phenylpropanamido)propyl)-1,4,7,10-tetraazacyclododecane-1,4,7-triyl)triacetic acid]
r1 (20 MHz), absence of HSA ([4]; 20 MHz, absence of HSA (first value of cell)): 6.0 mM⁻¹ s⁻¹
r1 (20 MHz), presence of HSA ([4]; 20 MHz, presence of HSA (second value of cell)): 30.7 mM⁻¹ s⁻¹
r1 (60 MHz), absence of HSA ([4]; 60 MHz, absence of HSA (first value of cell)): 6.4 mM⁻¹ s⁻¹
r1 (60 MHz), presence of HSA ([4]; 60 MHz, presence of HSA (second value of cell)): 21.8 mM⁻¹ s⁻¹
% HSA binding (HSA): 69%

CC1(N(CC(=O)O)CC(=O)O)CN(CC(=O)O)CCN(CC(=O)O)C1 [AAZTA]
Kcomp [Gd(DTPA)(H2O)]^2- vs. L pH 4 [5]: 0.091^9
Kcomp, [Gd(DTPA)(H2O)]^2- vs. L pH 7.4 [5]: .001^9

O=C(O)CN1CCN(CC(=O)O)Cc2cccc(n2)CN(CC(=O)O)CC1 [PCTA]
Kcomp [Gd(DTPA)(H2O)]^2- vs. L pH 4 [5]: 0.064^10
Kcomp, [Gd(DTPA)(H2O)]^2- vs. L pH 7.4 [5]: 0.019^10

H2N—C(SH)PG-DOTAla(Gd)-G-DOTAla(Gd)-G-DOTAla(Gd)-GC(SH)CONH2 [Gd3C3-red]
relaxivity after disulfide bond reduction [2]: 11.5 mM⁻¹ s⁻¹

H2N—C(SH)PG-DOTAla(Gd)-G-DOTAla(Gd)-GC(SH)CONH2 [Gd2C2-red]
relaxivity r1, cyclic versus linearized (reduced) multimer [2]: 9 mM⁻¹ s⁻¹
relaxivity after disulfide bond reduction [2]: 9 mM⁻¹ s⁻¹

NC(CN1CCN(CC(=O)O)CCN(CP(=O)(O)O)CCN(CC(=O)O)CC1)C(=O)O (stereo not shown) [Gd(3), 2,2′-(4-(2-amino-2-carboxyethyl)-10-(phosphonomethyl)-1,4,7,10-tetra-azacyclododecane-1,7-diyl)diacetic acid]
r1 (20 MHz, 37° C., mM^−1s^−1) [3]: 6.4 mM⁻¹ s⁻¹
r1 (60 MHz, 37° C., mM^−1s^−1) [3]: 6.1 mM⁻¹ s⁻¹
^310 TM (ns) [6]: 8.1 ± 0.25 ns
^310kex × 10^6 (s^−1) [6]: 125 ± 4 × 10^6 s^−1
ΔH^‡ [6]: 3.23 ± 0.268 kcal/mol

2,2′-(4-(2-carboxy-2-(2-(4-isobutylphenyl)propanamido)ethyl)-10-(phosphonomethyl)-1,4,7,10-tetraazacyclododecane-1,7-diyl)diacetic acid [Gd(5a)]
r1 (20 MHz, 37° C., mM^−1s^−1) [3]: 5.4 mM⁻¹ s⁻¹
r1 (60 MHz, 37° C., mM^−1s^−1) [3]: 4.1 mM⁻¹ s⁻¹
^310 TM (ns) [6]: 6.36 ± 0.09 ns
^310kex × 10^6 (s^−1) [6]: 158 ± 3 × 10^6 s^−1
ΔH^‡ [6]: 5.492 ± 0.421 kcal/mol

CC(C)Cc1ccc(C(C)C(=O)NCCNC(=O)C(N)CN2CCN(CC(=O)O)CCN(CP(=O)(O)O)CCN(CC(=O)O)CC2)cc1 (stereo not shown) [Gd(5b), 2, 2′-(4-(2-amino-3-((2-(2-(4-isobutylphenyl)propanamido)ethyl)amino)-3-oxopropyl)-10-(phosphonomethyl)-1,4,7,10-tetraazacyclododecane-1,7-diyl)diacetic acid]
r1 (20 MHz, 37° C., mM^−1s^−1) [3]: 3.2 mM⁻¹ s⁻¹
r1 (60 MHz, 37° C., mM^−1s^−1) [3]: 3.0 mM⁻¹ s⁻¹
